Measurements taken from patent US20240109900A1, “AZABICYCLIC SHP2 INHIBITORS” (IRBM S.P.A., priority 2021, published 2024).
Where two headings read alike, the source gives them in different places.

Legend:
[1] = target: SHP-2 enzyme (Met1-Leu525) (Homo sapiens (Human), UniProt Q06124); assay: SHP2 inhibition enzymatic assay; type: biochemical; conditions: read-out: SHP2wt-IC50
Procedure, shortened: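 SHP-2 (Met1-Leu525), 0.5 nM, activated with 500 nM IRS1 bis-phosphopeptide, preincubated 30 min with compounds in HEPES pH 7.2 buffer with 5 mM DTT. 75 μM DiFMUP added for 30 min at room temperature, stopped with bpV; fluorescence read. IC50 from four-parameter logistic fit of % inhibition.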

[2] = test system: ERK phosphorylation in KYSE-520 cells; assay: Phospho-ERK cellular assay; type: cell-based; conditions: KYSE-520 cells, 2 h at 37° C., phospho-ERK1/2 (Thr202/Tyr204) TR-FRET, read-out: PERK IC50
Procedure, shortened: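 TR-FRET read-out of ERK1/2 Thr202/Tyr204 phosphorylation was taken after overnight antibody incubation at room temperature. Before that, KYSE-520 cells were treated 2 h at 37 °C with compound dilutions and lysed 30 min. Percent inhibition relative to vehicle and cell-free wells was fitted four-parametrically to give IC50.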

[3] = 0.5 nM SHP-2 activated by 500 nM IRS1 peptide, 75 μM DiFMUP substrate

SHP-2 enzyme (Met1-Leu525), sequence (Q06124 1-525): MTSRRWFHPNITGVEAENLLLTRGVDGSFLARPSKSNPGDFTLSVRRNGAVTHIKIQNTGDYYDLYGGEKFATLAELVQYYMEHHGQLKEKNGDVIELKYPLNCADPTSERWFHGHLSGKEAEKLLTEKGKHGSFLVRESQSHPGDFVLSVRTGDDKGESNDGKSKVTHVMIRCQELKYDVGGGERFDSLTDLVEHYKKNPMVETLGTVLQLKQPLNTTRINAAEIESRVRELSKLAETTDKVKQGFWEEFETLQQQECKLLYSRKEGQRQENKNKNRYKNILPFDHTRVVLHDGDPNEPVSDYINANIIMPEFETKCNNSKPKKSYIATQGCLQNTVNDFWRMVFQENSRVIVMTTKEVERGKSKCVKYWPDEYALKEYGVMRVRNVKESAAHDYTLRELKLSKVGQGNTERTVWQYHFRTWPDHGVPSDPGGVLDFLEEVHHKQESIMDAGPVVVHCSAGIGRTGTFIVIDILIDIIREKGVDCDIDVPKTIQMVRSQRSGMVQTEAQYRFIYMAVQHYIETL

IC50 [1, 3]	IC50 ([2]; Homo sapiens, KYSE-520, 2 h)	SMILES	IC50 [1]	IC50 ([2]; Homo sapiens)	IC50 [2]
< 500 nM	< 1000 nM	NC[C@]1(c2ccccc2F)[C@@H]2CCN(c3cnc4c(-c5ccc(-c6cn[nH]c6)cc5Cl)n[nH]c4n3)C[C@@H]21 [Example 256, ((1S,6R,7R)-3-(3-(2-chloro-4-(1H-pyrazol-4-yl)phenyl)-1H-pyrazolo[3,4-b]pyrazin-6-yl)-7-(2-fluorophenyl)-3-azabicyclo[4.1.0]heptan-7-yl)methanamine]	–	–	–
–	–	NCC1(c2ccccc2)C2CCN(c3nc4nc(Sc5ccnc(N)c5Cl)cnc4[nH]3)CC21 (stereo not drawn) [Example 69, 4-((2-(7-(aminomethyl)-7-phenyl-3-azabicyclo[4.1.0]heptan-3-yl)-1H-imidazo[4,5-b]pyrazin-5-yl)thio)-3-chloropyridin-2-amine]	< 500 nM	1000 to 5000 nM	–
< 500 nM	< 1000 nM	Cc1cc(C2(CN)C3CCN(c4cnc5c(-c6ccc(F)c7ncccc67)n[nH]c5n4)CC32)no1 (stereo not drawn) [Example 30, (3-(3-(8-fluoroquinolin-5-yl)-1H-pyrazolo[3,4-b]pyrazin-6-yl)-7-(5-methylisoxazol-3-yl)-3-azabicyclo[4.1.0]heptan-7-yl)methanamine]	–	–	–
< 500 nM	< 1000 nM	Cn1c(=O)[nH]c2ccc(-c3n[nH]c4nc(N5CC[C@@H]6[C@H](C5)[C@@]6(CN)c5ccccc5F)cnc34)cc21 [Example 320, 6-(6-((1S,6R,7R)-7-(aminomethyl)-7-(2-fluorophenyl)-3-azabicyclo[4.1.0]heptan-3-yl)-1H-pyrazolo[3,4-b]pyrazin-3-yl)-1-methyl-1,3-dihydro-2H-benzo[d]imidazol-2-one]	–	–	–
< 500 nM	< 1000 nM	NC[C@]1(c2ccccc2F)[C@@H]2CCN(c3cnc4c(-c5ccc6c(c5Cl)CC(=O)N6)n[nH]c4n3)C[C@@H]21 [Example 216, 5-(6-((1S,6R,7R)-7-(aminomethyl)-7-(2-fluorophenyl)-3-azabicyclo[4.1.0]heptan-3-yl)-1H-pyrazolo[3,4-b]pyrazin-3-yl)-4-chloroindolin-2-one]	–	–	–
< 500 nM	< 1000 nM	NC[C@]1(c2ccccc2F)[C@@H]2CCN(c3cnc4c(-c5ccc6c(c5Cl)C(F)(F)C(=O)N6)n[nH]c4n3)C[C@@H]21 [Example 373, 5-(6-((1S,6R,7R)-7-(aminomethyl)-7-(2-fluorophenyl)-3-azabicyclo[4.1.0]heptan-3-yl)-1H-pyrazolo[3,4-b]pyrazin-3-yl)-4-chloro-3,3-difluoroindolin-2-one]	–	–	–
< 500 nM	< 1000 nM	Cc1cc(C2(CN)C3CCN(c4nc5[nH]nc(-c6ccc7nc(C)sc7c6Cl)c5nc4C)CC32)no1 (stereo not drawn) [Example 110, (3-(3-(7-chloro-2-methylbenzo[d]thiazol-6-yl)-5-methyl-1H-pyrazolo[3,4-b]pyrazin-6-yl)-7-(5-methylisoxazol-3-yl)-3-azabicyclo[4.1.0]heptan-7-yl)methanamine]	–	–	–
< 500 nM	< 1000 nM	NC[C@]1(c2ccccc2F)[C@@H]2CCN(c3cnc4c(N5CCCc6ncccc65)n[nH]c4n3)C[C@@H]21 [Example 169, ((1S,6R,7R)-3-(3-(3,4-dihydro-1,5-naphthyridin-1(2H)-yl)-1H-pyrazolo[3,4-b]pyrazin-6-yl)-7-(2-fluorophenyl)-3-azabicyclo[4.1.0]heptan-7-yl)methanamine]	–	–	–
> 3000 nM	< 1000 nM	Cn1cc2cc(-c3ccc4nc(N5CC[C@H]6[C@@H](C5)[C@]6(CN)c5ccccc5F)ccc4n3)ccc2n1 [Example 394, ((1R,6S,7S)-7-(2-fluorophenyl)-3-(6-(2-methyl-2H-indazol-5-yl)-1,5-naphthyridin-2-yl)-3-azabicyclo[4.1.0]heptan-7-yl)methanamine]	–	–	–
> 3000 nM	> 5000 nM	NC[C@]1(c2ccccc2F)[C@@H]2CCN(c3ncc(Sc4ccnc(N)c4Cl)n4cncc34)C[C@@H]21 [Example 135, 4-((8-((1S,6R,7R)-7-(aminomethyl)-7-(2-fluorophenyl)-3-azabicyclo[4.1.0]heptan-3-yl)imidazo[1,5-a]pyrazin-5-yl)thio)-3-chloropyridin-2-amine]	–	–	–
< 500 nM	< 1000 nM	NC[C@]1(c2ccccc2F)[C@@H]2CCN(c3cnc4c(-c5ccc6[nH]c(=O)ccc6c5)n[nH]c4n3)C[C@@H]21 [Example 234, 6-(6-((1S,6R,7R)-7-(aminomethyl)-7-(2-fluorophenyl)-3-azabicyclo[4.1.0]heptan-3-yl)-1H-pyrazolo[3,4-b]pyrazin-3-yl)quinolin-2(1H)-one]	–	–	–
< 500 nM	< 1000 nM	Cn1cc2c(Cl)c(-c3n[nH]c4nc(N5CCC6C(C5)C6(CN)c5ccccc5)cnc34)ccc2n1 (stereo not drawn) [Example 81, (3-(3-(4-chloro-2-methyl-2H-indazol-5-yl)-1H-pyrazolo[3,4-b]pyrazin-6-yl)-7-phenyl-3-azabicyclo[4.1.0]heptan-7-yl)methanamine]	–	–	–
< 500 nM	< 1000 nM	Cc1csc(C2(CN)C3CCN(c4cnc5c(-c6ccccc6Cl)n[nH]c5n4)CC32)n1 (stereo not drawn) [Example 84, (3-(3-(2-chlorophenyl)-1H-pyrazolo[3,4-b]pyrazin-6-yl)-7-(4-methylthiazol-2-yl)-3-azabicyclo[4.1.0]heptan-7-yl)methanamine]	–	–	–
< 500 nM	< 1000 nM	Cc1nnc([C@@]2(CN)[C@@H]3CN(c4cnc5c(-c6ccc7nn(C)cc7c6Cl)n[nH]c5n4)C[C@@H]32)s1 [Example 501, ((1R,5S,6r)-3-(3-(4-chloro-2-methyl-2H-indazol-5-yl)-1H-pyrazolo[3,4-b]pyrazin-6-yl)-6-(5-methyl-1,3,4-thiadiazol-2-yl)-3-azabicyclo[3.1.0]hexan-6-yl)methanamine]	–	–	–
< 500 nM	< 1000 nM	NC[C@]1(c2ccccc2F)[C@@H]2CCN(c3cnc4c(-c5ccc6ccc(=O)[nH]c6c5)n[nH]c4n3)C[C@@H]21 [Example 231, 7-(6-((1S,6R,7R)-7-(aminomethyl)-7-(2-fluorophenyl)-3-azabicyclo[4.1.0]heptan-3-yl)-1H-pyrazolo[3,4-b]pyrazin-3-yl)quinolin-2(1H)-one]	–	–	–
< 500 nM	< 1000 nM	NC[C@]1(c2ccccc2F)[C@@H]2CCN(c3cnc4c(-c5cc6c(cc5Cl)NC(=O)C6=O)n[nH]c4n3)C[C@@H]21 [Example 375, 5-(6-((1S,6R,7R)-7-(aminomethyl)-7-(2-fluorophenyl)-3-azabicyclo[4.1.0]heptan-3-yl)-1H-pyrazolo[3,4-b]pyrazin-3-yl)-6-chloroindoline-2,3-dione]	–	–	–
< 500 nM	–	Cc1csc([C@@]2(CN)[C@@H]3CN(c4cnc5c(-c6ccc7n[nH]cc7c6Cl)n[nH]c5n4)C[C@@H]32)n1 [Example 505]	–	–	< 1000 nM
< 500 nM	< 1000 nM	Cn1ccc([C@@]2(CN)[C@@H]3CN(c4cnc5c(-c6ccc7nn(C)cc7c6Cl)n[nH]c5n4)C[C@@H]32)n1 [Example 474, ((1R,5S,6r)-3-(3-(4-chloro-2-methyl-2H-indazol-5-yl)-1H-pyrazolo[3,4-b]pyrazin-6-yl)-6-(1-methyl-1H-pyrazol-3-yl)-3-azabicyclo[3.1.0]hexan-6-yl)methanamine]	–	–	–
< 500 nM	< 1000 nM	NC[C@]1(c2ccccc2F)[C@@H]2CCN(c3cnc4c(-c5cc[nH]c(=O)c5Cl)n[nH]c4n3)C[C@@H]21 [Example 268, 4-(6-((1S,6R,7R)-7-(aminomethyl)-7-(2-fluorophenyl)-3-azabicyclo[4.1.0]heptan-3-yl)-1H-pyrazolo[3,4-b]pyrazin-3-yl)-3-chloropyridin-2(1H)-one]	–	–	–
< 500 nM	< 1000 nM	NC[C@]1(c2ccccc2F)[C@@H]2CCN(c3cnc(Sc4cccc5ncccc45)cn3)C[C@@H]21 [Example 422, ((1S,6R,7R)-7-(2-fluorophenyl)-3-(5-(quinolin-5-ylthio)pyrazin-2-yl)-3-azabicyclo[4.1.0]heptan-7-yl)methanamine]	–	–	–
< 500 nM	< 1000 nM	NC[C@]1(c2ccccc2F)[C@@H]2CCN(c3cnc4c(-c5ccc(O)c(F)c5F)n[nH]c4n3)C[C@@H]21 [Example 374, 4-(6-((1S,6R,7R)-7-(aminomethyl)-7-(2-fluorophenyl)-3-azabicyclo[4.1.0]heptan-3-yl)-1H-pyrazolo[3,4-b]pyrazin-3-yl)-2,3-difluorophenol]	–	–	–

SMILES	IC50 [1, 3]	IC50 ([2]; Homo sapiens, KYSE-520, 2 h)	IC50 [1]	IC50 ([2]; Homo sapiens)	IC50 [2]
NC[C@]1(c2ccccc2F)[C@@H]2CCN(c3ccc4nc(Sc5ccnc(N)c5Cl)cnc4n3)C[C@@H]21 [Example 385, 4-((6-((1S,6R,7R)-7-(aminomethyl)-7-(2-fluorophenyl)-3-azabicyclo[4.1.0]heptan-3-yl)pyrido[2,3-b]pyrazin-2-yl)thio)-3-chloropyridin-2-amine]	< 500 nM	–	–	< 1000 nM	–
NC[C@]1(c2ccccc2F)[C@@H]2CCN(c3cnc4c(-c5ccc6nn(C7CC7)cc6c5Cl)n[nH]c4n3)C[C@@H]21 [Example 420]	< 500 nM	–	–	–	< 1000 nM
NC[C@]1(c2ccccc2F)[C@@H]2CCN(c3cnc4c(-c5ccc6c(cnn6C6CC6)c5Cl)n[nH]c4n3)C[C@@H]21 [Example 413]	< 500 nM	–	–	–	< 1000 nM
